How the values were obtained:
patients = assay: clinical study of imexon to treat cancer: adverse events (daily dose 5 consecutive days per week, every other week, four-week cycle); assay type: in vivo, human
Excerpt: As described hereinbefore, it has been found, unexpectedly, that the administration of a pharmaceutical composition comprising imexon induces constipation in a large percentage of patients. Of forty nine (49) patients taking part in a clinical study investigating the use of imexon to treat cancer, thirty one (31) patients (63.3%) were reported to have had the gastrointestinal toxicity of constipation in association with their treatment with imexon. […] All other observed gastrointestinal adverse events individually accounted for less than 5% of total gastrointestinal adverse events.
Of the forty nine (49) patients treated in the clinical study, thirty nine (39) received imexon at a dose equal to or greater than 140 mg/m^2, thirty three (33) received imexon at a dose equal to or greater than 185 mg/m^2, and thirty (30) received imexon at a dose equal to or greater than 245 mg/m^2.
Of these seventy three (73) constipation adverse events, fifty two (52) of the adverse events (71.2%) were characterized as “possibly,” “probably,” or “definitely related to the treatment” of the patient with imexon.

human tumor cell lines = settings: cited from earlier work
[1] = test system: human lymphoma, melanoma, and prostate cancer cell lines; settings: mouse, in vivo; cited from earlier work
[2] = 20 mg/m^2, relationship Not Related
[3] = 80 mg/m^2, relationship Not Related
[4] = 105 mg/m^2, relationship Not Related
[5] = 140 mg/m^2, relationship Not Related
[6] = 140 mg/m^2, relationship Probable
[7] = 140 mg/m^2, relationship Unlikely
[8] = 185 mg/m^2, relationship Not Related
[9] = 185 mg/m^2, relationship Possible
[10] = 185 mg/m^2, relationship Probable
[11] = 245 mg/m^2, relationship Not Related
[12] = 245 mg/m^2, relationship Possible
[13] = 245 mg/m^2, relationship Probable
[14] = 325 mg/m^2, relationship Possible
[15] = 325 mg/m^2, relationship Probable
[16] = 430 mg/m^2, relationship Possible
[17] = 430 mg/m^2, relationship Probable
[18] = 430 mg/m^2, relationship Unlikely
[19] = 570 mg/m^2, relationship Definite
[20] = 570 mg/m^2, relationship Probable
[21] = 750 mg/m^2, relationship Definite
[22] = 750 mg/m^2, relationship Possible
[23] = 750 mg/m^2, relationship Probable
[24] = 875 mg/m^2, relationship Definite
[25] = 875 mg/m^2, relationship Possible
[26] = 875 mg/m^2, relationship Probable
[27] = 1000 mg/m^2, relationship Probable
[28] = all doses 20-1000 mg/m^2 (Total), relationship Definite
[29] = all doses 20-1000 mg/m^2 (Total), relationship Not Related
[30] = all doses 20-1000 mg/m^2 (Total), relationship Possible
[31] = all doses 20-1000 mg/m^2 (Total), relationship Probable
[32] = all doses 20-1000 mg/m^2 (Total), relationship Unlikely
[33] = all doses 20-1000 mg/m^2, 49 patients, all relationships (Total)
[34] = dose equal to or greater than 185 mg/m^2
[35] = dose equal to or greater than 245 mg/m^2

N=C1NC(=O)N2CC12 (stereo not shown) [imexon, 4-imino-1,3-diazabicyclo[3.1.0]-hexan-2-one]
Constipation Adverse Events, Total (patients; 20 mg/m^2, relationship Definite): 0
Constipation Adverse Events, Grade 2 (patients; [2]): 1
Constipation Adverse Events, Grade 3 (patients; [2]): 1
Constipation Adverse Events, Total (patients; [2]): 2
Constipation Adverse Events, Total (patients; 20 mg/m^2, relationship Possible): 0
Constipation Adverse Events, Total (patients; 20 mg/m^2, relationship Probable): 0
Constipation Adverse Events, Total (patients; 20 mg/m^2, relationship Unlikely): 0
Constipation Adverse Events, Total (patients; 40 mg/m^2, relationship Definite): 0
Constipation Adverse Events, Total (patients; 40 mg/m^2, relationship Not Related): 0
Constipation Adverse Events, Total (patients; 40 mg/m^2, relationship Possible): 0
Constipation Adverse Events, Total (patients; 40 mg/m^2, relationship Probable): 0
Constipation Adverse Events, Total (patients; 40 mg/m^2, relationship Unlikely): 0
Constipation Adverse Events, Total (patients; 80 mg/m^2, relationship Definite): 0
Constipation Adverse Events, Grade 2 (patients; [3]): 3
Constipation Adverse Events, Grade 3 (patients; [3]): 1
Constipation Adverse Events, Total (patients; [3]): 4
Constipation Adverse Events, Total (patients; 80 mg/m^2, relationship Possible): 0
Constipation Adverse Events, Total (patients; 80 mg/m^2, relationship Probable): 0
Constipation Adverse Events, Total (patients; 80 mg/m^2, relationship Unlikely): 0
Constipation Adverse Events, Total (patients; 105 mg/m^2, relationship Definite): 0
Constipation Adverse Events, Grade 2 (patients; [4]): 5
Constipation Adverse Events, Grade 3 (patients; [4]): 3
Constipation Adverse Events, Total (patients; [4]): 8
Constipation Adverse Events, Total (patients; 105 mg/m^2, relationship Possible): 0
Constipation Adverse Events, Total (patients; 105 mg/m^2, relationship Probable): 0
Constipation Adverse Events, Total (patients; 105 mg/m^2, relationship Unlikely): 0
Constipation Adverse Events, Total (patients; 140 mg/m^2, relationship Definite): 0
Constipation Adverse Events, Grade 2 (patients; [5]): 1
Constipation Adverse Events, Total (patients; [5]): 1
Constipation Adverse Events, Total (patients; 140 mg/m^2, relationship Possible): 0
Constipation Adverse Events, Grade 2 (patients; [6]): 1
Constipation Adverse Events, Total (patients; [6]): 1
Constipation Adverse Events, Grade 2 (patients; [7]): 2
Constipation Adverse Events, Grade 3 (patients; [7]): 1
Constipation Adverse Events, Total (patients; [7]): 3
Constipation Adverse Events, Total (patients; 185 mg/m^2, relationship Definite): 0
Constipation Adverse Events, Grade 3 (patients; [8]): 1
Constipation Adverse Events, Total (patients; [8]): 1
Constipation Adverse Events, Grade 1 (patients; [9]): 1
Constipation Adverse Events, Total (patients; [9]): 1
Constipation Adverse Events, Grade 2 (patients; [10]): 1
Constipation Adverse Events, Total (patients; [10]): 1
Constipation Adverse Events, Total (patients; 185 mg/m^2, relationship Unlikely): 0
Constipation Adverse Events, Total (patients; 245 mg/m^2, relationship Definite): 0
Constipation Adverse Events, Grade 1 (patients; [11]): 1
Constipation Adverse Events, Total (patients; [11]): 1
Constipation Adverse Events, Grade 2 (patients; [12]): 4
Constipation Adverse Events, Grade 3 (patients; [12]): 1
Constipation Adverse Events, Total (patients; [12]): 5
Constipation Adverse Events, Grade 2 (patients; [13]): 2
Constipation Adverse Events, Grade 3 (patients; [13]): 1
Constipation Adverse Events, Total (patients; [13]): 3
Constipation Adverse Events, Total (patients; 245 mg/m^2, relationship Unlikely): 0
Constipation Adverse Events, Total (patients; 325 mg/m^2, relationship Definite): 0
Constipation Adverse Events, Total (patients; 325 mg/m^2, relationship Not Related): 0
Constipation Adverse Events, Grade 2 (patients; [14]): 2
Constipation Adverse Events, Total (patients; [14]): 2
Constipation Adverse Events, Grade 1 (patients; [15]): 1
Constipation Adverse Events, Grade 2 (patients; [15]): 2
Constipation Adverse Events, Total (patients; [15]): 3
Constipation Adverse Events, Total (patients; 325 mg/m^2, relationship Unlikely): 0
Constipation Adverse Events, Total (patients; 430 mg/m^2, relationship Definite): 0
Constipation Adverse Events, Total (patients; 430 mg/m^2, relationship Not Related): 0
Constipation Adverse Events, Grade 2 (patients; [16]): 1
Constipation Adverse Events, Total (patients; [16]): 1
Constipation Adverse Events, Grade 1 (patients; [17]): 2
Constipation Adverse Events, Grade 2 (patients; [17]): 5
Constipation Adverse Events, Grade 3 (patients; [17]): 1
Constipation Adverse Events, Total (patients; [17]): 8
Constipation Adverse Events, Grade 1 (patients; [18]): 1
Constipation Adverse Events, Total (patients; [18]): 1
Constipation Adverse Events, Grade 1 (patients; [19]): 1
Constipation Adverse Events, Grade 2 (patients; [19]): 4
Constipation Adverse Events, Grade 3 (patients; [19]): 2
Constipation Adverse Events, Total (patients; [19]): 7
Constipation Adverse Events, Total (patients; 570 mg/m^2, relationship Not Related): 0
Constipation Adverse Events, Total (patients; 570 mg/m^2, relationship Possible): 0
Constipation Adverse Events, Grade 1 (patients; [20]): 1
Constipation Adverse Events, Total (patients; [20]): 1
Constipation Adverse Events, Total (patients; 570 mg/m^2, relationship Unlikely): 0
Constipation Adverse Events, Grade 1 (patients; [21]): 1
Constipation Adverse Events, Grade 2 (patients; [21]): 4
Constipation Adverse Events, Grade 3 (patients; [21]): 3
Constipation Adverse Events, Total (patients; [21]): 8
Constipation Adverse Events, Total (patients; 750 mg/m^2, relationship Not Related): 0
Constipation Adverse Events, Grade 1 (patients; [22]): 2
Constipation Adverse Events, Total (patients; [22]): 2
Constipation Adverse Events, Grade 2 (patients; [23]): 2
Constipation Adverse Events, Total (patients; [23]): 2
Constipation Adverse Events, Total (patients; 750 mg/m^2, relationship Unlikely): 0
Constipation Adverse Events, Grade 1 (patients; [24]): 2
Constipation Adverse Events, Grade 2 (patients; [24]): 1
Constipation Adverse Events, Grade 3 (patients; [24]): 1
Constipation Adverse Events, Total (patients; [24]): 4
Constipation Adverse Events, Total (patients; 875 mg/m^2, relationship Not Related): 0
Constipation Adverse Events, Grade 2 (patients; [25]): 1
Constipation Adverse Events, Total (patients; [25]): 1
Constipation Adverse Events, Grade 1 (patients; [26]): 1
Constipation Adverse Events, Total (patients; [26]): 1
Constipation Adverse Events, Total (patients; 875 mg/m^2, relationship Unlikely): 0
Constipation Adverse Events, Total (patients; 1000 mg/m^2, relationship Definite): 0
Constipation Adverse Events, Total (patients; 1000 mg/m^2, relationship Not Related): 0
Constipation Adverse Events, Total (patients; 1000 mg/m^2, relationship Possible): 0
Constipation Adverse Events, Grade 2 (patients; [27]): 1
Constipation Adverse Events, Total (patients; [27]): 1
Constipation Adverse Events, Total (patients; 1000 mg/m^2, relationship Unlikely): 0
all other observed gastrointestinal adverse events, individually, as share of total gastrointestinal adverse events (patients; 49 patients): less than 5%
anorexia as share of total gastrointestinal adverse events (patients; 49 patients): 13.4%
constipation adverse events as share of all gastrointestinal adverse events (patients; 49 patients): 21.8%
diarrhea as share of total gastrointestinal adverse events (patients; 49 patients): 10.5%
nausea as share of all gastrointestinal adverse events (patients; 49 patients): 23.0%
vomiting as share of total gastrointestinal adverse events (patients; 49 patients): 11.9%
Constipation Adverse Events, Grade 1 (patients; [28]): 4
Constipation Adverse Events, Grade 2 (patients; [28]): 9
Constipation Adverse Events, Grade 3 (patients; [28]): 6
Constipation Adverse Events, Grade 4 (patients; [28]): 0
Constipation Adverse Events, Grade 5 (patients; [28]): 0
Constipation Adverse Events, Total (patients; [28]): (Total) 19
Constipation Adverse Events, Grade 1 (patients; [29]): 1
Constipation Adverse Events, Grade 2 (patients; [29]): 10
Constipation Adverse Events, Grade 3 (patients; [29]): 6
Constipation Adverse Events, Grade 4 (patients; [29]): 0
Constipation Adverse Events, Grade 5 (patients; [29]): 0
Constipation Adverse Events, Total (patients; [29]): (Total) 17
Constipation Adverse Events, Grade 1 (patients; [30]): 3
Constipation Adverse Events, Grade 2 (patients; [30]): 8
Constipation Adverse Events, Grade 3 (patients; [30]): 1
Constipation Adverse Events, Grade 4 (patients; [30]): 0
Constipation Adverse Events, Grade 5 (patients; [30]): 0
Constipation Adverse Events, Total (patients; [30]): (Total) 12
Constipation Adverse Events, Grade 1 (patients; [31]): 5
Constipation Adverse Events, Grade 2 (patients; [31]): 14
Constipation Adverse Events, Grade 3 (patients; [31]): 2
Constipation Adverse Events, Grade 4 (patients; [31]): 0
Constipation Adverse Events, Grade 5 (patients; [31]): 0
Constipation Adverse Events, Total (patients; [31]): (Total) 21
Constipation Adverse Events, Grade 1 (patients; [32]): 1
Constipation Adverse Events, Grade 2 (patients; [32]): 2
Constipation Adverse Events, Grade 3 (patients; [32]): 1
Constipation Adverse Events, Grade 4 (patients; [32]): 0
Constipation Adverse Events, Grade 5 (patients; [32]): 0
Constipation Adverse Events, Total (patients; [32]): (Total) 4
Constipation Adverse Events, Grade 1 (patients; [33]): (Total) 14
Constipation Adverse Events, Grade 2 (patients; [33]): (Total) 43
Constipation Adverse Events, Grade 3 (patients; [33]): (Total) 16
Constipation Adverse Events, Grade 4 (patients; [33]): (Total) 0
Constipation Adverse Events, Grade 5 (patients; [33]): (Total) 0
Constipation Adverse Events, Total (patients; [33]): 73
Constipation Adverse Events, Total (patients; all doses 20-1000 mg/m^2, 49 patients, all relationships (Total), listed as Imexon): (Total) 73
constipation adverse events characterized as possibly, probably, or definitely related to the treatment (patients; [34]): 94.4%
constipation adverse events characterized as probably, or definitely related to the treatment (patients; [34]): 72.2%
constipation adverse events in total (patients; [34]): 54
constipation adverse events characterized as possibly, probably, or definitely related to the treatment (patients; [35]): 96.1%
constipation adverse events characterized as probably, or definitely related to the treatment (patients; [35]): 74.5%
constipation adverse events in total (patients; [35]): 51
activity against a variety of human tumor cell lines in culture (human tumor cell lines): active
activity against human lymphoma, melanoma, and prostate cancer cell lines in SCID mice [1]: active

Source: US20070048250A1, “Methods of treating concomitant constipation in a cancer treatment regimen including imexon” (AmpliMed Corporation, priority 2005, published 2007)
